The test system of one series is VL51 cells. It counts as cell-based, human. As to conditions: 72 h. Here is the method: (§1) The established human cell lines VL51 1 and Karpas1718 2, derived from bona fide marginal zone lymphomas (MZL), and their derivatives with secondary resistance obtained by long exposure to the BTK inhibitor ibrutinib, the PI3Kδ inhibitor idelalisib or the PI3Kα/δ inhibitor copanlisib (three from VL51 3-5, and one from Karpas1718 6). Cell lines were cultured in RPMI supplemented with fetal bovine serum (FBS) (10%) and penicillin-streptomycin-neomycin (≈5,000 units penicillin, 5 mg streptomycin, and 10 mg neomycin/mL; Sigma-Aldrich, Darmstadt, Germany). Cell line identities were confirmed by periodic short tandem repeat (STR) DNA fingerprinting using the Promega GenePrint 10 System kit (B9510).
(§2) Cells were regularly tested for mycoplasma negativity using the MycoAlert Mycoplasma Detection Kit (Lonza, Visp, Switzerland).
(§3) […] Purity (>95%) was confirmed by reverse-phase high-performance liquid chromatography (RP-HPLC) while molecular masses were verified by mass spectrometry. Peptides were dissolved in nuclease-free water, and 2 mM stock solutions were prepared 7.
(§4) Antarctic peptides were synthesized by Caslo Aps (Caslo Aps Kongens, Lyngby, Denmark) with 98% purity. Purity was confirmed by reverse-phase high-performance liquid chromatography (RP-HPLC), and molecular masses were verified by mass spectrometry. As previously reported, the peptide stock concentration in nuclease-free water (1 mM) was determined spectrophotometrically.
(§5) In vitro cytotoxic activity
(§6) Cells were manually seeded into 96-well plates (VL51, 10’000 cells per well; SSK41, 20’000 cells per well; Karpas1718, 30’000 cells per well). Treatments were applied manually, and cell viability was assessed after 72 hours using 3-(4,5-dimethylthiazol-2-yl)-2,5-diphenyltetrazolium bromide (MTT).
(§7) After a 4-hour incubation, the reaction was terminated by adding sodium dodecyl sulfate (SDS) lysis buffer. Plates were analyzed with Cytation3, and IC50s were calculated using the 4-parameter logistic model (R environment or GraphPad Prism, Version 10.6.1). Antarctic peptides were tested at 40μM, with 1:2 dilutions down to 625 nM. Temporins were tested at 100μM, with 1:5 dilutions down to 32 nM. […]

The subject of series [1] is VL51-Idel (idelalisib-resistant VL51) cells. It counts as cell-based, human. As to conditions: 72 h. The protocol: as §1, §2, §3, §4, §5, §6, §7
The subject of a further series is Karpas1718 cells. It counts as cell-based, human. As to conditions: 72 h. Here is the method:
as §1, §2, §3, §4, §5, §6, §7

In series [2] the test system is Karpas1718-Idel (idelalisib-resistant Karpas1718) cells. It counts as cell-based, human. As to conditions: 72 h. The protocol:
as §1, §2, §3, §4, §5, §6, §7

In series [3] the test system is VL51-Copa (copanlisib-resistant VL51) cells. It counts as cell-based, human. As to conditions: 72 h. Here is the method:
as §1, §2, §3, §4, §5, §6, §7

Series [4] relates to VL51-Ibru (ibrutinib-resistant VL51) cells. It counts as cell-based, human. As to conditions: 72 h. Here is the method:
as §1, §2, §3, §4, §5, §6, §7

Series [5] has as its system MZL cell lines (VL51, Karpas1718) and resistant derivatives. As to the kind of experiment: In vitro cytotoxic activity (MTT, 72 h), summary over the MZL cell line panel. It counts as cell-based. Here is the method:
For in vitro testing, we used two human MZL cell lines, VL51 and Karpas1718, along with derivative clones rendered resistant by prolonged exposure to the BTK inhibitor ibrutinib, the PI3Kδ inhibitor idelalisib, or the PI3Kα/δ inhibitor copanlisib (Table S1; methods described in the Supporting Information). […] The calculated IC50 values ranged from 5 to 10 µM (Table S2). […] These findings were validated by treating lymphoma cells and peripheral blood mononuclear cells (PBMCs) in parallel. […] While acquired resistance to BTK or PI3K inhibitors often involves secondary mutations in the drug‐binding site, activation of alternative kinases, or evasion of apoptosis through upregulation of anti‐apoptotic proteins, these adaptations are unlikely to protect tumor cells from AMP‐mediated membrane disruption. […]
as §1, §2, §3, §4, §5, §6, §7

For another series, the system named is PBMCs. As to the kind of experiment: Cell death and membrane integrity by Annexin V/PI staining. It counts as cell-based. As to conditions: 10 µM; 1 and 2 h; PBMCs treated in parallel; flow cytometry; listed as temporin L. Here is the method: as §1
Cells were regularly tested for mycoplasma negativity using the MycoAlert Mycoplasma Detection Kit (Lonza, Visp, Switzerland). […]
Antarctic peptides were synthesized by Caslo Aps (Caslo Aps Kongens, Lyngby, Denmark) with 98% purity. […] As previously reported, the peptide stock concentration in nuclease-free water (1 mM) was determined spectrophotometrically. […]
Subsequently, cells were stained with Annexin V and propidium iodide (PI) (Annexin V FITC Apoptosis Detection Kit, BMS500FI-300, Life Technologies) following the manufacturer ’s instructions and analyzed through flow cytometry and immunofluorescence (Leica Thunder microscope). […]

Another series has as its system Karpas1718-Idel cells. The series is described as above. It is filed as cell-based, human. As to conditions: 10 µM, 1 and 2 h, flow cytometry. Here is the method: as §1, §2, §3
Antarctic peptides were synthesized by Caslo Aps (Caslo Aps Kongens, Lyngby, Denmark) with 98% purity. Purity was confirmed by reverse-phase high-performance liquid chromatography (RP-HPLC), and molecular masses were verified by mass spectrometry. As previously reported, the peptide stock concentration in nuclease-free water (1 mM) was determined spectrophotometrically. […]
Subsequently, cells were stained with Annexin V and propidium iodide (PI) (Annexin V FITC Apoptosis Detection Kit, BMS500FI-300, Life Technologies) following the manufacturer ’s instructions and analyzed through flow cytometry and immunofluorescence (Leica Thunder microscope).
PBMCs. Flow cytometric (A) and immunofluorescence (B) analyses of Annexin V/PI staining in Karpas1718-Idel cells and PBMCs after 1- and 2-hour treatments with W-trematocine or Temporin L at 10 µM. (B) Representative images (100x magnification) show brightfield, Annexin V (green), and PI […]

Each structure is given as a SMILES string. Peptide text beside a SMILES is read from it. Bounds are passed on as bounds.

Turning to `CSCC[C@H](NC(=O)CNC(=O)[C@H](Cc1c[nH]cn1)NC(=O)[C@@H](NC(=O)[C@H](CCCNC(=N)N)NC(=O)[C@H](CCC(=O)O)NC(=O)[C@H](C)NC(=O)[C@H](C)NC(=O)[C@@H](NC(=O)[C@H](CC(C)C)NC(=O)[C@H](C)NC(=O)[C@H](Cc1c[nH]cn1)NC(=O)CNC(=O)[C@@H](NC(=O)[C@H](Cc1c[nH]cn1)NC(=O)[C@H](CCCCN)NC(=O)[C@H](Cc1c[nH]c2ccccc12)NC(=O)[C@H](Cc1ccccc1)NC(=O)[C@H](CCC(=O)O)NC(=O)[C@@H](N)Cc1ccccc1)C(C)C)[C@@H](C)O)C(C)C)C(=O)N[C@@H](CC(C)C)C(=O)N[C@H](C(=O)NCC(=O)O)[C@@H](C)O` [Chionodracine] (H-FEFWKHVGHALTAAERVHGMLTG-OH; N-terminus and C-terminus assumed), the IC50 (with VL51 cells; in [1]; in the series on Karpas1718 cells; in [2]; in [3]; in [4]) was over 40 µM throughout. Further, the “anti-proliferative activity (in words)” value in series [5] (MZL cell lines VL51, Karpas1718 and resistant derivatives) was “inactive”. In addition, the cytotoxic effect entry in series [5] (concentrations up to 50 µM, MZL cell lines) is reported as “no measurable cytotoxic effect”.

Regarding `CC[C@H](C)[C@H](NC(=O)CNC(=O)[C@H](CO)NC(=O)[C@H](CC(C)C)NC(=O)[C@@H](NC(=O)[C@H](CCCNC(=N)N)NC(=O)CNC(=O)[C@@H](NC(=O)[C@H](CC(C)C)NC(=O)[C@@H]1CCCN1C(=O)[C@H](CC(C)C)NC(=O)[C@@H](N)Cc1ccccc1)[C@@H](C)CC)C(C)C)C(=O)N[C@@H](CC(C)C)C(N)=O` [Temporin A] (H-FLPLIGRVLSGIL-NH2; N-terminus and C-terminus assumed), the IC50 is 32 µM in the series on VL51 cells; 27.5 µM in series [1]; 47.4 µM in the series with Karpas1718 cells; 49 µM in series [2]; 48.8 µM in series [3]; 48.5 µM in [4].

Turning to `CC[C@H](C)[C@H](NC(=O)[C@@H]1CCCN1C(=O)[C@H](CC(C)C)NC(=O)[C@@H](N)CC(C)C)C(=O)N[C@H](C(=O)NCC(=O)N[C@@H](CC(N)=O)C(=O)N[C@@H](CC(C)C)C(=O)N[C@@H](CC(C)C)C(=O)N[C@@H](CCCCN)C(=O)N[C@@H](CO)C(=O)N[C@@H](CC(C)C)C(=O)N[C@@H](CC(C)C)C(N)=O)C(C)C` [Temporin B] (H-LLPIVGNLLKSLL-NH2; N-terminus and C-terminus assumed), the IC50 with VL51 cells amounted to 38.2 µM; in [1], 31.6 µM; with Karpas1718 cells, 44.1 µM; in [2] it was 71.4 µM; in series [3] it was 47.7 µM; in series [4], 45.4 µM.

As to `CC[C@H](C)[C@H](NC(=O)CNC(=O)[C@H](CC(N)=O)NC(=O)[C@H](CC(C)C)NC(=O)[C@@H](NC(=O)[C@H](CCCNC(=N)N)NC(=O)CNC(=O)[C@@H](NC(=O)[C@@H](NC(=O)[C@@H]1CCCN1C(=O)[C@H](Cc1ccccc1)NC(=O)[C@@H](N)Cc1ccccc1)C(C)C)[C@@H](C)CC)[C@@H](C)CC)C(=O)N[C@@H](CC(C)C)C(N)=O` [Temporin G] (H-FFPVIGRILNGIL-NH2; N-terminus assumed), the IC50 with VL51 cells was 35.2 µM; in series [1], 28.2 µM; with Karpas1718 cells, 31 µM; in [2] it was 101 µM; in series [3], 26.5 µM; in series [4], 38.1 µM.

As to `CC[C@H](C)[C@H](NC(=O)[C@H](CCCNC(=N)N)NC(=O)CNC(=O)[C@H](CC(C)C)NC(=O)[C@H](Cc1ccccc1)NC(=O)[C@H](CCCCN)NC(=O)[C@H](CO)NC(=O)[C@H](Cc1ccccc1)NC(=O)[C@H](Cc1c[nH]c2ccccc12)NC(=O)[C@H](CCC(N)=O)NC(=O)[C@@H](NC(=O)[C@@H](N)Cc1ccccc1)C(C)C)C(=O)N[C@@H](CC(C)C)C(N)=O` [Temporin L] (H-FVQWFSKFLGRIL-NH2), the “sensitivity of PBMCs (Annexin V/PI staining)” value in the series on PBMCs is given as “markedly less sensitive”. For the same compound, the IC50 stood at 8.9 µM with VL51 cells; 6.4 µM in [1]; 7.5 µM in the series with Karpas1718 cells; 10.1 µM in series [2]; 7.4 µM in [3]; 9.6 µM in series [4]. The “anti-lymphoma activity (Annexin V/PI staining)” value with Karpas1718-Idel cells is recorded as “active in lymphoma cells”; in the series with Karpas1718-Idel cells (listed as temporin L) it was “potent anti‐lymphoma activity”. For the same compound, the “activity in resistant models” value in [5] (derivatives resistant to BTK, PI3Kδ or PI3Kα/δ inhibitors) is “maintaining full activity in all resistant models”.

On to `CC[C@H](C)[C@H](NC(=O)CNC(=O)[C@H](CCCNC(=N)N)NC(=O)[C@H](Cc1ccc(O)cc1)NC(=O)[C@H](CC(C)C)NC(=O)[C@H](CCC(N)=O)NC(=O)[C@H](CO)NC(=O)[C@H](Cc1ccccc1)NC(=O)[C@@H](N)Cc1ccccc1)C(=O)N[C@H](C(=O)N[C@@H](CO)C(=O)N[C@H](C(=O)NCC(=O)N[C@@H](CCCCN)C(=O)N[C@@H](Cc1c[nH]cn1)C(=O)N[C@H](C(=O)N[C@@H](Cc1c[nH]cn1)C(=O)NCC(=O)N[C@@H](CC(C)C)C(=O)N[C@@H](CC(C)C)C(=O)N[C@@H](CO)C(=O)NCC(=O)O)[C@@H](C)CC)C(C)C)C(C)C` [Trematocine-1] (H-FFSQLYRGIVSVGKHIHGLLSG-OH; N-terminus and C-terminus assumed), for which the IC50 (in the series with VL51 cells; in series [1]; in the series on Karpas1718 cells; in series [2]; in [3]; in series [4]) was over 40 µM throughout. The same compound gave an IC50 in [5] (72 h) of 25 to 50 µM.

The values above are taken from PMC13239830, “Antimicrobial Peptides Induce Cell Death in Marginal Zone Lymphoma Models Resistant to Targeted Therapies” (EJHaem, 2026).
